According to patent publication US20010007016A1, “PEPTIDE DERIVATIVES” (priority 1994, published 2001):

Legend:
Mice [1] = assay: Analgesic activity by pressure stimulation method, Method A (UGO BASILE analgesy meter Model 7,200, tail pressure in grams); type: in vivo; conditions: for ED50: Mus musculus, read-out: ED50 (dose that induced 50 percent of % of MPE)
Method: (§1) The analgesic activities of the peptide derivatives of the present invention were evaluated by the pressure stimulation method using one of two devices. In method A, analgesy meter Model 7,200 manufactured by UGO BASILE (Comerio, Italy) was used (units of tail pressure expressed in grams). In method B, an apparatus made by inventor Professor S. Sakurada was used (units of tail pressure expressed in mmHg). Mice were subjected to pressure stimulation at the bases of their tails at a given rate(Method A: 32 g/s; Method B: 10 mmHg/second). […] For the experiments, mice that normally responded to a given pressure of 100-200 g (Method A) or 40-50 mmHg (Method B) were used. The maximum stimulating pressure was 500 g (Method A) or 100 mmHg (Method B). Analgesic activity was calculated as percent of maximum possible effect (% of MPE) according to the equation: [formula]
(§2) Wherein Po is the pain reaction threshold before the administration of a drug; Pt is the pain reaction threshold “t” minutes after the administration of the drug; and Pc is the maximum stimulating pressure. ED5 0 values were calculated based on dose response curves as doses that induced 50 percent of % of MPE and analgesic activities of the drugs were compared. The results obtained from subcutaneous administration (s.c.; skin on the backs of the mice was used) and oral administration (p.o.) are shown in Table 3.

Mice [2] = assay: Analgesic activity by pressure stimulation method, Method B (apparatus made by Professor S. Sakurada, tail pressure in mmHg); type: in vivo; conditions: for ED50: Mus musculus, read-out: ED50 (dose that induced 50 percent of % of MPE)
Method: as §1, §2

H2NC(NH)-Tyr-D-Arg-Phe-NHCH2CH2COOH
ED50 (dose that induced 50 percent of % of MPE) (Mice [1]; p.o.): 18.5 mg/kg | ED50 (dose that induced 50 percent of % of MPE) (Mice [1]; s.c.): 0.32 mg/kg

H2NC(NH)-Tyr-D-Arg-Phe-N(Me)2
ED50 (dose that induced 50 percent of % of MPE) (Mice [2]; s.c.): 1.22 mg/kg

H2NC(NH)-Tyr-D-Arg-Phe-N(CH3)CH2COHN2
ED50 (dose that induced 50 percent of % of MPE) (Mice [2]; s.c.): 0.27 mg/kg

CN1CC[C@]23c4c5ccc(O)c4O[C@H]2[C@@H](O)C=C[C@H]3[C@H]1C5 [morphine, reference compound]
ED50 (Mice [1]; po): 22.2 mg/kg | ED50 (Mice [1]; sc): 3.3 mg/kg | ED50 (Mice [2]; po): 29.6 mg/kg | ED50 (Mice [2]; sc): 4.6 mg/kg

H2NC(NH)-Tyr-D-Arg-Phe-N(CH3)CH2COOH
ED50 (dose that induced 50 percent of % of MPE) (Mice [2]; p.o.): 4.9 mg/kg | ED50 (dose that induced 50 percent of % of MPE) (Mice [2]; s.c.): 0.13 mg/kg

H2NC(NH)-Tyr-D-Arg-Phe-N(CH3)CH2CH2COOH
ED50 (dose that induced 50 percent of % of MPE) (Mice [1]; p.o.): 5.8 mg/kg | ED50 (dose that induced 50 percent of % of MPE) (Mice [1]; s.c.): 0.09 mg/kg
